What is called AUC is concentration integrated over time. Lower therefore signals less exposure.

Structures are written as SMILES. Like-named read-outs stand apart in the source and are kept apart here.

The test system of series [1] is Proteus vulgaris. The conditions noted are these: Antimicrobial Agent and Chemotherapy 14, 557-568 (1978); cited from earlier work.
The subject of series [2] is Klebsiella pneumoniae. The following applies: Antimicrobial Agent and Chemotherapy 14, 557-568 (1978); cited from earlier work.
Series [3] has as its system Proteus mirabilis. The following applies: Antimicrobial Agent and Chemotherapy 14, 557-568 (1978); cited from earlier work.
In series [4] the test system is Staphylococcus aureus. The conditions noted are these: Antimicrobial Agent and Chemotherapy 14, 557-568 (1978); cited from earlier work.
Details of series [5]: species or system mice. The conditions noted are these: mouse, in vivo; for Bioavailability / Plasma level of non-ester (Compound [II]) 2 hr / AUC: 120 min; for Plasma level of non-ester (Compound [II]) 0.25 hr / Plasma level of non-ester (Compound [II]) 0.5 hr / Plasma level of non-ester (Compound [II]) 1.0 hr / Plasma level of non-ester (Compound [II]) 2 hr / AUC: po, 100 mg/kg; for Plasma level of non-ester (Compound [II]) 0.25 hr: 15 min; for Plasma level of non-ester (Compound [II]) 0.5 hr: 30 min; for Plasma level of non-ester (Compound [II]) 1.0 hr: 60 min. The method, then:
The compounds of Examples (compound Nos. 1 and 2) and, as a control compound, the pivaloyloxymethyl ester of compound [II] (hereinafter referred to briefly as compound A) are administered orally to mice, each compound to one animal, in the dose of 100 mg/kg in terms of the non-ester, i.e. compound [II]. […] As a control, compound [II] is subcutaneously administered to a mouse and the AUC value is calculated as above.

The test system of series [6] is Proteus morganii. The following applies: Antimicrobial Agent and Chemotherapy 14, 557-568 (1978); cited from earlier work.
The test system of series [7] is Escherichia coli. The conditions noted are these: Antimicrobial Agent and Chemotherapy 14, 557-568 (1978); cited from earlier work.

For the molecule `CN(C)CCn1nnnc1SCC1=C(C(=O)O)N2C(=O)[C@@H](NC(=O)Cc3csc(N)n3)[C@H]2SC1` [Compound [II], 7β-[2-(2-aminothiazol-4-yl)acetamido]-3-[[[1-(2-dimethylaminoethyl)-1H-tetrazol-5-yl]thio]methyl]ceph-3-em-4-carboxylic acid], the antibacterial activity result in series [1], in series [2], in series [3], in series [4], in series [6] and in series [7] was “potent antibacterial activity” in each case. The Bioavailability in series [5] (sc) is 100%.

In the case of `CN(C)CCn1nnnc1SCC1=C(C(=O)OCOC(=O)C(C)(C)C)N2C(=O)[C@@H](NC(=O)Cc3csc(N)n3)[C@H]2SC1` [A, pivaloyloxymethyl ester of compound [II]], in series [5], the Bioavailability is 41.8%, the “Plasma level of non-ester (Compound [II]) 0.25 hr” value was found to be 21000 ng/mL, the “Plasma level of non-ester (Compound [II]) 0.5 hr” value amounted to 16200 ng/mL and the “Plasma level of non-ester (Compound [II]) 1.0 hr” value was 6100 ng/mL. In series [5], the “Plasma level of non-ester (Compound [II]) 2 hr” value was found to be 600 ng/mL.

As to `CCCC(OC(=O)CC(C)C)OC(=O)C1=C(CSc2nnnn2CCN(C)C)CS[C@@H]2[C@H](NC(=O)Cc3csc(N)n3)C(=O)N12.Cl.Cl` (stereo partly drawn) [Compound No. 2, 1-(3-Methylbutyryloxy)butyl 7β-[2-(2-aminothiazol-4-yl)acetamido]-3-[[[1-(2-dimethylaminoethyl) -1H-tetrazol-5-yl]thio]methyl]ceph-3-em-4-carboxylate dihydrochloride], in series [5], the Bioavailability is 81.4%, the “Plasma level of non-ester (Compound [II]) 0.25 hr” value came to 74300 ng/mL, the “Plasma level of non-ester (Compound [II]) 0.5 hr” value was 21600 ng/mL and the “Plasma level of non-ester (Compound [II]) 1.0 hr” value came out at 5360 ng/mL. In series [5], the AUC turned out to be 31600 ng·h/mL and the “Plasma level of non-ester (Compound [II]) 2 hr” value was 1800 ng/mL.

As to `CC(C)CC(=O)OC(OC(=O)C1=C(CSc2nnnn2CCN(C)C)CS[C@@H]2[C@H](NC(=O)Cc3csc(N)n3)C(=O)N12)C(C)C.Cl.Cl` (stereo partly drawn) [Compound No. 1, 1-(3-Methylbutyryloxy)-2-methylpropyl 7β-[2-(2-aminothiazol-4-yl)acetamido]-3-[[[1-(2-dimethylaminoethyl)-1H-tetrazol-5-yl]thio]methyl]ceph-3-em-4-carboxylate dihydrochloride], in series [5], the Bioavailability was found to be 91.0%, the “Plasma level of non-ester (Compound [II]) 0.25 hr” value stood at 55400 ng/mL, the “Plasma level of non-ester (Compound [II]) 0.5 hr” value was 37000 ng/mL and the “Plasma level of non-ester (Compound [II]) 1.0 hr” value came out at 8460 ng/mL. In series [5], the AUC was 35300 ng·h/mL and the “Plasma level of non-ester (Compound [II]) 2 hr” value was 2500 ng/mL.
